Laboratory results: paper PMC4911353, “Pharmacologic Inhibition of Host Phosphodiesterase-4 Improves Isoniazid-Mediated Clearance of Mycobacterium tuberculosis” (Frontiers in Immunology, 2016)

System: Mtb-infected mouse lungs
Experiment: Genome-wide lung transcriptome (microarray, IPA network/GO analysis) of Mtb-infected mice
Assay type: in vivo
Set-up: SDEGs upregulated in TNF-α interaction network / SDEGs downregulated in TNF-α interaction network: unit not given here
[1] = TNF-a regulon network, Mtb-infected mouse lungs, CC-11050 treated
[2] = lungs of treated infected animals

Q: CCOc1cc([C@@H](CS(C)(=O)=O)N2Cc3cccc(NC(=O)C4CC4)c3C2=O)ccc1OC [CC-11050, N-[2-[(1S)-1-(3-ethoxy-4-methoxyphenyl)-2-(methylsulfonyl)ethyl]-2,3-dihydro-3-oxo-1H-isoindol-4-yl]-(9Cl) cyclopropanecarboxamide] was tested. Which PCK2 expression (TNF-a regulon network) did it give?
A: 0

Q: What about the PCP4 expression (TNF-a regulon network) of the same compound?
A: 0

Q: And the PCSK6 expression (TNF-a regulon network)?
A: 0

Q: What about the PDCD1 expression (TNF-a regulon network) of the same compound?
A: 0

Q: What about the PDE2A expression (TNF-a regulon network) of the same compound?
A: 0

Q: What about the PDE8B expression (TNF-a regulon network) of the same compound?
A: 0

Q: And the PDGFA expression (TNF-a regulon network)?
A: 0

Q: And the PDPN expression (TNF-a regulon network)?
A: -1.216

Q: What about the PDZD2 expression (TNF-a regulon network) of the same compound?
A: 0

Q: What about the PECAM1 expression (TNF-a regulon network) of the same compound?
A: 0

Q: And the PENK expression (TNF-a regulon network)?
A: 0

Q: What about the PIGR expression (TNF-a regulon network) of the same compound?
A: 0

Q: What about the PKMYT1 expression (TNF-a regulon network) of the same compound?
A: 0

Q: What about the PLA2G5 expression (TNF-a regulon network) of the same compound?
A: 0

Q: And the PLA2G16 expression (TNF-a regulon network)?
A: 0

Q: What about the PLAUR expression (TNF-a regulon network) of the same compound?
A: 0

Q: And the PLIN1 expression (TNF-a regulon network)?
A: 0

Q: What about the PLIN4 expression (TNF-a regulon network) of the same compound?
A: 0

Q: What about the PLK3 expression (TNF-a regulon network) of the same compound?
A: 0

Q: What about the PLSCR1 expression (TNF-a regulon network) of the same compound?
A: 0

Q: What about the PML expression (TNF-a regulon network) of the same compound?
A: 0

Q: What about the PPAP2A expression (TNF-a regulon network) of the same compound?
A: 1.247

Q: And the PPARA expression (TNF-a regulon network)?
A: 0

Q: And the PPARD expression (TNF-a regulon network)?
A: 0

Q: What about the PPARG expression (TNF-a regulon network) of the same compound?
A: 0

Q: What about the PPARGC1A expression (TNF-a regulon network) of the same compound?
A: 0

Q: What about the PPP1R3C expression (TNF-a regulon network) of the same compound?
A: 0

Q: What about the PRKCD expression (TNF-a regulon network) of the same compound?
A: 0

Q: And the PRSS23 expression (TNF-a regulon network)?
A: 0

Q: And the PSMA2 expression (TNF-a regulon network)?
A: 0

Q: And the PSMB8 expression (TNF-a regulon network)?
A: 0

Q: And the PSMB9 expression (TNF-a regulon network)?
A: 0

Q: What about the PSMB10 expression (TNF-a regulon network) of the same compound?
A: 0

Q: And the PSME1 expression (TNF-a regulon network)?
A: 0

Q: What about the PSME2 expression (TNF-a regulon network) of the same compound?
A: 0

Q: What about the PXMP2 expression (TNF-a regulon network) of the same compound?
A: 0

Q: What about the PYCARD expression (TNF-a regulon network) of the same compound?
A: 0

Q: What about the RAB32 expression (TNF-a regulon network) of the same compound?
A: 0

Q: What about the RARRES2 expression (TNF-a regulon network) of the same compound?
A: 0

Q: And the RASD1 expression (TNF-a regulon network)?
A: 0

Q: What about the RCAN1 expression (TNF-a regulon network) of the same compound?
A: 0

Q: What about the RCN3 expression (TNF-a regulon network) of the same compound?
A: 1.2203

Q: And the REL expression (TNF-a regulon network)?
A: 0

Q: And the RETN expression (TNF-a regulon network)?
A: 0

Q: What about the RFTN1 expression (TNF-a regulon network) of the same compound?
A: 0

Q: What about the RFX5 expression (TNF-a regulon network) of the same compound?
A: 0

Q: What about the RGS1 expression (TNF-a regulon network) of the same compound?
A: 0

Q: And the RGS2 expression (TNF-a regulon network)?
A: 0

Q: And the RGS4 expression (TNF-a regulon network)?
A: 0

Q: What about the RGS5 expression (TNF-a regulon network) of the same compound?
A: 0

Q: What about the RGS7 expression (TNF-a regulon network) of the same compound?
A: 0

Q: And the RGS14 expression (TNF-a regulon network)?
A: 0

Q: And the RGS16 expression (TNF-a regulon network)?
A: 0

Q: And the RIPK1 expression (TNF-a regulon network)?
A: 0

Q: And the RIPK2 expression (TNF-a regulon network)?
A: 0

Q: And the RNASE2 expression (TNF-a regulon network)?
A: 0

Q: And the RNASE4 expression (TNF-a regulon network)?
A: 0

Q: What about the RND3 expression (TNF-a regulon network) of the same compound?
A: -1.216

Q: And the RNF149 expression (TNF-a regulon network)?
A: 0

Q: What about the ROBO1 expression (TNF-a regulon network) of the same compound?
A: 1.1568

Q: And the RRM2 expression (TNF-a regulon network)?
A: 0

Q: What about the RUNX2 expression (TNF-a regulon network) of the same compound?
A: 0

Q: What about the S100A8 expression (TNF-a regulon network) of the same compound?
A: 0

Q: What about the SAA2 expression (TNF-a regulon network) of the same compound?
A: 0

Q: And the SAMD4A expression (TNF-a regulon network)?
A: 0

Q: And the SCNN1A expression (TNF-a regulon network)?
A: 0

Q: And the SCNN1B expression (TNF-a regulon network)?
A: 0

Q: And the SCNN1G expression (TNF-a regulon network)?
A: 1.211

Q: What about the SCUBE1 expression (TNF-a regulon network) of the same compound?
A: 0

Q: And the SCUBE2 expression (TNF-a regulon network)?
A: 1.331

Q: And the SDC2 expression (TNF-a regulon network)?
A: 0

Q: What about the SELPLG expression (TNF-a regulon network) of the same compound?
A: 0

Q: What about the SEMA3C expression (TNF-a regulon network) of the same compound?
A: 1.231

Q: And the SEPP1 expression (TNF-a regulon network)?
A: 0

Q: What about the SERPINB9 expression (TNF-a regulon network) of the same compound?
A: 0

Q: And the SERPINE2 expression (TNF-a regulon network)?
A: 0

Q: What about the SERPINF1 expression (TNF-a regulon network) of the same compound?
A: 0

Q: What about the SHH expression (TNF-a regulon network) of the same compound?
A: 0

Q: And the SLC14A1 expression (TNF-a regulon network)?
A: 0

Q: And the SLC1A2 expression [1]?
A: 0

Q: And the SLC1A3 expression [1]?
A: 0

Q: And the SLC1A4 expression [1]?
A: 0

Q: What about the SLC2A6 expression [1] of the same compound?
A: 0

Q: What about the SLC5A8 expression [1] of the same compound?
A: 0

Q: What about the SLC7A8 expression [1] of the same compound?
A: 0

Q: And the SLC20A1 expression [1]?
A: 0

Q: What about the SLFN12L expression [1] of the same compound?
A: 0

Q: And the SMAD3 expression [1]?
A: 0

Q: What about the SMPD1 expression [1] of the same compound?
A: 0

Q: What about the SMPD2 expression [1] of the same compound?
A: 0

Q: What about the SMPDL3A expression [1] of the same compound?
A: 1.176

Q: And the SMURF1 expression [1]?
A: 0

Q: And the SMURF2 expression [1]?
A: 1.4579

Q: And the SNCG expression [1]?
A: 0

Q: What about the SND1 expression [1] of the same compound?
A: 0

Q: And the SOCS3 expression [1]?
A: 0

Q: What about the SOD1 expression [1] of the same compound?
A: 1.19

Q: What about the SP1 expression [1] of the same compound?
A: 0

Q: And the SP3 expression [1]?
A: 0

Q: And the SPHK1 expression [1]?
A: 0

Q: And the SQSTM1 expression [1]?
A: 0

Q: What about the ST3GAL5 expression [1] of the same compound?
A: 0

Q: And the ST3GAL6 expression [1]?
A: 0

Q: What about the ST6GAL1 expression [1] of the same compound?
A: 0

Q: And the STARD3 expression [1]?
A: 0

Q: And the STAT4 expression [1]?
A: 0

Q: What about the STEAP4 expression [1] of the same compound?
A: 0

Q: What about the STMN1 expression [1] of the same compound?
A: -1.16

Q: And the SULT2A1 expression [1]?
A: 0

Q: And the SYTL1 expression [1]?
A: 0

Q: And the Slco1a4 expression [1]?
A: 0

Q: And the TAP1 expression [1]?
A: 0

Q: What about the TAPBP expression [1] of the same compound?
A: 0

Q: What about the TBX21 expression [1] of the same compound?
A: 0

Q: And the TBXAS1 expression [1]?
A: 0

Q: What about the TDRD7 expression [1] of the same compound?
A: 0

Q: What about the TEK expression [1] of the same compound?
A: 0

Q: And the TF expression [1]?
A: 0

Q: And the THY1 expression [1]?
A: 0

Q: What about the TIMP2 expression [1] of the same compound?
A: 0

Q: And the TIMP4 expression [1]?
A: 0

Q: What about the TJP1 expression [1] of the same compound?
A: 0

Q: What about the TLR7 expression [1] of the same compound?
A: 0

Q: What about the TLR8 expression [1] of the same compound?
A: 0

Q: What about the TM4SF1 expression [1] of the same compound?
A: 0

Q: What about the TNF expression [1] of the same compound?
A: 0

Q: And the TNFAIP2 expression [1]?
A: 0

Q: And the TNFAIP3 expression [1]?
A: 0

Q: And the TNFAIP6 expression [1]?
A: 0

Q: What about the TNFAIP8 expression [1] of the same compound?
A: 0

Q: And the TNFRSF11A expression [1]?
A: -1.191

Q: What about the TNFRSF18 expression [1] of the same compound?
A: 0

Q: And the TNFSF10 expression [1]?
A: 0

Q: What about the TNFSF13B expression [1] of the same compound?
A: 0

Q: What about the TNIP1 expression [1] of the same compound?
A: 0

Q: What about the TNN expression [1] of the same compound?
A: 0

Q: What about the TPD52L2 expression [1] of the same compound?
A: 1.132

Q: And the TPT1 expression [1]?
A: 0

Q: And the TRADD expression [1]?
A: 0

Q: And the TRAF1 expression [1]?
A: 0

Q: And the TRAF2 expression [1]?
A: 0

Q: What about the TRAF3 expression [1] of the same compound?
A: 0

Q: And the TRAFD1 expression [1]?
A: 0

Q: And the TREM2 expression [1]?
A: 0

Q: What about the TWIST2 expression [1] of the same compound?
A: 0

Q: And the TXNIP expression [1]?
A: 1.1361

Q: What about the TYK2 expression [1] of the same compound?
A: 0

Q: And the Tgtp1/Tgtp2 expression [1]?
A: 0

Q: And the UBD expression [1]?
A: 0

Q: What about the UBE2H expression [1] of the same compound?
A: 0

Q: What about the UCP1 expression [1] of the same compound?
A: 0

Q: And the VASP expression [1]?
A: 0

Q: And the VCAM1 expression [1]?
A: 0

Q: And the VIPR2 expression [1]?
A: 0

Q: And the WHSC1 expression [1]?
A: 0

Q: What about the WISP1 expression [1] of the same compound?
A: 0

Q: What about the WLS expression [1] of the same compound?
A: 0

Q: What about the WNT5A expression [1] of the same compound?
A: 0

Q: And the WNT7A expression [1]?
A: 0

Q: What about the WTAP expression [1] of the same compound?
A: 0

Q: And the ZC3H12A expression [1]?
A: 0

Q: And the ZNF365 expression [1]?
A: 0

Q: What about the “Genes downregulated in lung inflammation network” value [2] of the same compound?
A: four

Q: What about the “Genes upregulated in lung inflammation network” value [2] of the same compound?
A: nine

Q: And the “SDEGs downregulated in TNF-α interaction network” value [2]?
A: 8

Q: What about the “SDEGs upregulated in TNF-α interaction network” value [2] of the same compound?
A: 33

Q: And the “Il-17 interaction network genes whose expression was dampened” value (lungs of treated infected mice)?
A: 87%

Q: And the “Genes significantly differentially expressed in Il-17 interaction network” value (lungs of treated infected mice, HmgB1, Il17F, Entpd1, HspB8)?
A: four
